According to PubChem BioAssay AID248 (DTP/NCI, 2004):
Toxic doses and inconclusive results are not listed. Rule as the data show it: active = T/C of 150% or more; inactive = T/C below 125%.

Test system: L1210 leukemia ip in BDF1 mice, survival T/C
Experiment: NCI In Vivo Anticancer Drug Screen. Data for tumor model L1210 Leukemia (intraperitoneal) in B6D2F1 (BDF1) mice
Settings: endpoint: mean survival time, higher = longer survival
Summary of the method: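 Ratio derived from survival: compound-dosed mice over vehicle-dosed mice, all bearing a transplantable tumor.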

[1] = dose: 50.0 mg/kg/injection, schedule: Q01DX009 (ip), vehicle: Klucel (hydroxypropylcellulose) (HPC)
[2] = dose: 100.0 mg/kg/injection, schedule: Q01DX009 (ip), vehicle: Klucel (hydroxypropylcellulose) (HPC)
[3] = dose: 100.0 mg/kg/injection, schedule: Q04DX003 (ip), vehicle: Klucel (hydroxypropylcellulose) (HPC)
[4] = dose: 200.0 mg/kg/injection, schedule: Q01DX009 (ip), vehicle: Klucel (hydroxypropylcellulose) (HPC)
[5] = dose: 400.0 mg/kg/injection, schedule: Q01DX009 (ip), vehicle: Klucel (hydroxypropylcellulose) (HPC)
[6] = dose: 100.0 mg/kg/injection, schedule: Q01DX009 (ip), vehicle: saline with Tween-80
[7] = dose: 200.0 mg/kg/injection, schedule: Q01DX009 (ip), vehicle: saline with Tween-80
[8] = dose: 100.0 mg/kg/injection, schedule: Q04DX003 (ip), vehicle: saline with Tween-80
[9] = dose: 200.0 mg/kg/injection, schedule: Q04DX003 (ip), vehicle: saline with Tween-80
[10] = dose: 400.0 mg/kg/injection, schedule: Q04DX003 (ip), vehicle: saline with Tween-80

Measured: T/C

CCN1C(C)C1C(C)C (stereo unspecified)
inactive: dose: 25.0 mg/kg/injection, schedule: Q01DX009 (ip), vehicle: Klucel (hydroxypropylcellulose) (HPC) 105 % of control | [1] 107 % of control | [2] 109 % of control | [3] 117 % of control

S=C(Nc1cccc2ccccc12)N1CCOCC1
inactive: [2] 94 % of control | [4] 120 % of control | [5] 96 % of control

CC(C)=CCCC1(C)C=Cc2c(c(C)cc3c4ccccc4n(C)c23)O1 (stereo unspecified)
inactive: dose: 25.0 mg/kg/injection, schedule: Q04DX002 (ip), vehicle: DMSO 96 % of control | dose: 50.0 mg/kg/injection, schedule: Q04DX002 (ip), vehicle: DMSO 89 % of control | dose: 100.0 mg/kg/injection, schedule: Q04DX002 (ip), vehicle: DMSO 99 % of control

CC(=O)Oc1ccc(C)cc1
inactive: [1] 94 % of control | [2] 110 % of control | [3] 100 % of control | [4] 107 % of control | dose: 200.0 mg/kg/injection, schedule: Q04DX003 (ip), vehicle: Klucel (hydroxypropylcellulose) (HPC) 104 % of control

CN(C)P1N(C)CCN1C
inactive: dose: 100.0 mg/kg/injection, schedule: Q01DX001 (ip), vehicle: saline 95 % of control | dose: 200.0 mg/kg/injection, schedule: Q01DX001 (ip), vehicle: saline 106 % of control | dose: 400.0 mg/kg/injection, schedule: Q01DX001 (ip), vehicle: saline 87 % of control

CN1CCC(CO)(c2ccccc2)C1 (stereo unspecified)
inactive: dose: 75.0 mg/kg/injection, schedule: Q01DX001 (ip), vehicle: carboxymethylcellulose (CMC) 96 % of control | dose: 150.0 mg/kg/injection, schedule: Q01DX001 (ip), vehicle: carboxymethylcellulose (CMC) 98 % of control

COc1cccc(C2NC(=O)CCC2N)c1OC (stereo unspecified)
inactive: dose: 100.0 mg/kg/injection, schedule: Q04DX002 (ip), vehicle: saline with Tween-80 105 % of control | dose: 200.0 mg/kg/injection, schedule: Q04DX002 (ip), vehicle: saline with Tween-80 102 % of control | dose: 400.0 mg/kg/injection, schedule: Q04DX002 (ip), vehicle: saline with Tween-80 97 % of control

CNC(=O)NCCCCCCCCCCC(=O)O
inactive: [2] 104 % of control | [4] 91 % of control | [5] 106 % of control

COc1ccc(Cl)cc1
inactive: [6] 92 % of control | [7] 90 % of control

CC1(C)CCc2ccccc2C1
inactive: dose: 50.0 mg/kg/injection, schedule: Q01DX009 (ip), vehicle: saline with Tween-80 104 % of control | [6] 96 % of control

C/C(CC(O)(C(F)(F)Cl)C(F)(F)Cl)=N\O
inactive: [6] 92 % of control | [8] 107 % of control | [7] 97 % of control | [9] 93 % of control | [10] 93 % of control

O=C1c2cccc3cc([N+](=O)[O-])cc(c23)C(=O)N1C(CO)(CO)CO
inactive: dose: 100.0 mg/kg/injection, schedule: Q04DX002 (ip), vehicle: saline 101 % of control | dose: 200.0 mg/kg/injection, schedule: Q04DX002 (ip), vehicle: saline 101 % of control | dose: 400.0 mg/kg/injection, schedule: Q04DX002 (ip), vehicle: saline 99 % of control

NC(=O)Nc1cccc(Cl)c1
inactive: dose: 100.0 mg/kg/injection, schedule: Q04DX002 (ip), vehicle: gum acacia 106 % of control | dose: 200.0 mg/kg/injection, schedule: Q04DX002 (ip), vehicle: gum acacia 98 % of control | dose: 400.0 mg/kg/injection, schedule: Q04DX002 (ip), vehicle: gum acacia 106 % of control

COc1cc(C=Nc2cccc(C(=O)O)c2)ccc1N(CCCl)CCCl
inactive: dose: 50.0 mg/kg/injection, schedule: Q01DX001 (ip), vehicle: carboxymethylcellulose (CMC) 117 % of control

CCCCCCCCCCCCCCCCCCNC(=O)Nc1ccccc1[N+](=O)[O-]
inactive: dose: 50.0 mg/kg/injection, schedule: Q01DX009 (ip), vehicle: DMSO 98 % of control | dose: 100.0 mg/kg/injection, schedule: Q01DX009 (ip), vehicle: DMSO 88 % of control | dose: 100.0 mg/kg/injection, schedule: Q04DX003 (ip), vehicle: DMSO 94 % of control | dose: 200.0 mg/kg/injection, schedule: Q04DX003 (ip), vehicle: DMSO 89 % of control

O=Cc1[nH]c(=S)[nH]c(=O)c1Cc1ccc([N+](=O)[O-])cc1
inactive: [8] 93 % of control | [9] 92 % of control | [10] 100 % of control

CSc1ccc(-c2nc3ncnc(N)c3[nH]2)cc1
inactive: dose: 25.0 mg/kg/injection, schedule: Q01DX001 (ip), vehicle: gum acacia 95 % of control | dose: 50.0 mg/kg/injection, schedule: Q01DX001 (ip), vehicle: gum acacia 93 % of control
